From PubChem BioAssay (NCI)
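Results reflect a 48-hour exposure of cells in 96-well plates to compound at five concentrations. GI50 marks 50% less growth. TGI: concentration producing complete growth inhibition.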

Tests used:
Test in all cases: inhibition of tumour cell growth, NCI panel, 48 h
786-0 renal = tested on: 786-0 renal
A498 renal = tested on: A498 renal
A549 NSCLC = tested on: A549 NSCLC
ACHN renal = tested on: ACHN renal
BT-549 breast = tested on: BT-549 breast
CAKI-1 renal = tested on: CAKI-1 renal
CCRF-CEM leukemia = tested on: CCRF-CEM leukemia
COLO 205 colon = tested on: COLO 205 colon
DU-145 prostate = tested on: DU-145 prostate
EKVX NSCLC = tested on: EKVX NSCLC
HCC-2998 colon = tested on: HCC-2998 colon
HCT-116 colon = tested on: HCT-116 colon
HCT-15 colon = tested on: HCT-15 colon
HL-60(TB) leukemia = tested on: HL-60(TB) leukemia
HOP-62 NSCLC = tested on: HOP-62 NSCLC
HOP-92 NSCLC = tested on: HOP-92 NSCLC
HS 578T breast = tested on: HS 578T breast
HT29 colon = tested on: HT29 colon
IGROV1 ovarian = tested on: IGROV1 ovarian
K-562 leukemia = tested on: K-562 leukemia
KM12 colon = tested on: KM12 colon
LOX IMVI melanoma = tested on: LOX IMVI melanoma
M14 melanoma = tested on: M14 melanoma
MALME-3M melanoma = tested on: MALME-3M melanoma
MCF7 breast = tested on: MCF7 breast
MDA-MB-231 breast = tested on: MDA-MB-231 breast
MDA-MB-435 = tested on: MDA-MB-435
MOLT-4 leukemia = tested on: MOLT-4 leukemia
NCI-H226 lung = tested on: NCI-H226 lung
NCI-H460 lung = tested on: NCI-H460 lung
NCI-H522 lung = tested on: NCI-H522 lung
NCI/ADR-RES ovarian = tested on: NCI/ADR-RES ovarian
OVCAR-3 ovarian = tested on: OVCAR-3 ovarian
OVCAR-4 ovarian = tested on: OVCAR-4 ovarian
OVCAR-5 ovarian = tested on: OVCAR-5 ovarian
OVCAR-8 ovarian = tested on: OVCAR-8 ovarian
PC-3 prostate = tested on: PC-3 prostate
RPMI-8226 leukemia = tested on: RPMI-8226 leukemia
RXF 393 renal = tested on: RXF 393 renal
SF-268 CNS = tested on: SF-268 CNS
SF-295 CNS = tested on: SF-295 CNS
SF-539 CNS = tested on: SF-539 CNS
SK-MEL-2 melanoma = tested on: SK-MEL-2 melanoma
SK-MEL-28 melanoma = tested on: SK-MEL-28 melanoma
SK-MEL-5 melanoma = tested on: SK-MEL-5 melanoma
SK-OV-3 ovarian = tested on: SK-OV-3 ovarian
SN12C renal = tested on: SN12C renal
SNB-19 CNS = tested on: SNB-19 CNS
SNB-75 CNS = tested on: SNB-75 CNS
SR leukemia = tested on: SR leukemia
SW-620 colon = tested on: SW-620 colon
T-47D breast = tested on: T-47D breast
TK-10 renal = tested on: TK-10 renal
U251 CNS = tested on: U251 CNS
UACC-257 melanoma = tested on: UACC-257 melanoma
UACC-62 melanoma = tested on: UACC-62 melanoma
UO-31 renal = tested on: UO-31 renal

`C/C(=C(/c1ccc(O)cc1)c1ccc(OCCN(C)C)cc1)c1ccc(Cl)cc1` was tested. Which GI50 (786-0 renal) did it give?
The GI50 was 14.8 µM.

And the TGI (786-0 renal)?
Its TGI is 29.5 µM.

And the GI50 (A498 renal)?
The GI50 was greater than 100 µM.

What about the TGI (A498 renal) of the same compound?
The TGI was greater than 100 µM.

What about the GI50 (A549 NSCLC) of the same compound?
Its GI50 is 50.9 µM.

And the TGI (A549 NSCLC)?
Its TGI is greater than 100 µM.

And the GI50 (ACHN renal)?
The GI50 was 29.1 µM.

What about the TGI (ACHN renal) of the same compound?
Its TGI is 89.4 µM.

What about the GI50 (BT-549 breast) of the same compound?
The GI50 was 40.9 µM.

And the TGI (BT-549 breast)?
Its TGI is greater than 100 µM.

What about the GI50 (CAKI-1 renal) of the same compound?
The GI50 was 15.8 µM.

What about the TGI (CAKI-1 renal) of the same compound?
The TGI was 40.9 µM.

And the GI50 (CCRF-CEM leukemia)?
The GI50 was 25 µM.

And the TGI (CCRF-CEM leukemia)?
Its TGI is 77.7 µM.

What about the GI50 (COLO 205 colon) of the same compound?
Its GI50 is 17.6 µM.

And the TGI (COLO 205 colon)?
The TGI was 33.1 µM.

And the GI50 (DU-145 prostate)?
The GI50 was 34.3 µM.

And the TGI (DU-145 prostate)?
The TGI was greater than 100 µM.

And the GI50 (EKVX NSCLC)?
The GI50 was 34.4 µM.

And the TGI (EKVX NSCLC)?
Its TGI is greater than 100 µM.

And the GI50 (HCC-2998 colon)?
The GI50 was 18.1 µM.

What about the TGI (HCC-2998 colon) of the same compound?
Its TGI is 35.1 µM.

What about the GI50 (HCT-116 colon) of the same compound?
The GI50 was 14.8 µM.

What about the TGI (HCT-116 colon) of the same compound?
The TGI was 28.7 µM.

What about the GI50 (HCT-15 colon) of the same compound?
The GI50 was 18 µM.

And the TGI (HCT-15 colon)?
Its TGI is 37.7 µM.

And the GI50 (HL-60(TB) leukemia)?
Its GI50 is 17.9 µM.

What about the TGI (HL-60(TB) leukemia) of the same compound?
The TGI was 39.3 µM.

What about the GI50 (HOP-62 NSCLC) of the same compound?
The GI50 was 18.2 µM.

What about the TGI (HOP-62 NSCLC) of the same compound?
The TGI was 38.7 µM.

What about the GI50 (HOP-92 NSCLC) of the same compound?
The GI50 was 22.3 µM.

What about the TGI (HOP-92 NSCLC) of the same compound?
The TGI was 90.3 µM.

And the GI50 (HS 578T breast)?
The GI50 was 20 µM.

And the TGI (HS 578T breast)?
The TGI was 75.9 µM.

What about the GI50 (HT29 colon) of the same compound?
Its GI50 is 16 µM.

What about the TGI (HT29 colon) of the same compound?
Its TGI is 31.9 µM.

What about the GI50 (IGROV1 ovarian) of the same compound?
The GI50 was 31.6 µM.

And the TGI (IGROV1 ovarian)?
The TGI was greater than 100 µM.

And the GI50 (K-562 leukemia)?
Its GI50 is 19.6 µM.

And the TGI (K-562 leukemia)?
Its TGI is 53.8 µM.

What about the GI50 (KM12 colon) of the same compound?
Its GI50 is 25.6 µM.

And the TGI (KM12 colon)?
Its TGI is 72.6 µM.

What about the GI50 (LOX IMVI melanoma) of the same compound?
The GI50 was 17.2 µM.

And the TGI (LOX IMVI melanoma)?
The TGI was 32.1 µM.

And the GI50 (M14 melanoma)?
Its GI50 is 17.6 µM.

What about the TGI (M14 melanoma) of the same compound?
The TGI was 35.3 µM.

And the GI50 (MALME-3M melanoma)?
Its GI50 is 16 µM.

And the TGI (MALME-3M melanoma)?
The TGI was 30.9 µM.

And the GI50 (MCF7 breast)?
Its GI50 is 1.69 µM.

What about the TGI (MCF7 breast) of the same compound?
The TGI was 27.2 µM.

What about the GI50 (MDA-MB-231 breast) of the same compound?
The GI50 was 20.7 µM.

What about the TGI (MDA-MB-231 breast) of the same compound?
The TGI was 46.1 µM.

And the GI50 (MDA-MB-435)?
Its GI50 is 16.6 µM.

And the TGI (MDA-MB-435)?
Its TGI is 31.4 µM.

What about the GI50 (MOLT-4 leukemia) of the same compound?
The GI50 was 20 µM.

And the TGI (MOLT-4 leukemia)?
Its TGI is 52.5 µM.

What about the GI50 (NCI-H226 lung) of the same compound?
The GI50 was 54.5 µM.

What about the TGI (NCI-H226 lung) of the same compound?
Its TGI is greater than 100 µM.

And the GI50 (NCI-H460 lung)?
The GI50 was 17.5 µM.

And the TGI (NCI-H460 lung)?
Its TGI is 32.9 µM.

And the GI50 (NCI-H522 lung)?
Its GI50 is 17.4 µM.

And the TGI (NCI-H522 lung)?
The TGI was 38 µM.

What about the GI50 (NCI/ADR-RES ovarian) of the same compound?
The GI50 was 28.3 µM.

What about the TGI (NCI/ADR-RES ovarian) of the same compound?
The TGI was greater than 100 µM.

And the GI50 (OVCAR-3 ovarian)?
The GI50 was 24 µM.

And the TGI (OVCAR-3 ovarian)?
Its TGI is 69 µM.

What about the GI50 (OVCAR-4 ovarian) of the same compound?
The GI50 was 35.4 µM.

What about the TGI (OVCAR-4 ovarian) of the same compound?
Its TGI is greater than 100 µM.

And the GI50 (OVCAR-5 ovarian)?
Its GI50 is 33.7 µM.

What about the TGI (OVCAR-5 ovarian) of the same compound?
Its TGI is greater than 100 µM.

What about the GI50 (OVCAR-8 ovarian) of the same compound?
The GI50 was 31 µM.

What about the TGI (OVCAR-8 ovarian) of the same compound?
The TGI was greater than 100 µM.

And the GI50 (PC-3 prostate)?
The GI50 was 23.7 µM.

And the TGI (PC-3 prostate)?
Its TGI is 74.8 µM.

What about the GI50 (RPMI-8226 leukemia) of the same compound?
The GI50 was 20.8 µM.

What about the TGI (RPMI-8226 leukemia) of the same compound?
Its TGI is 54.5 µM.

What about the GI50 (RXF 393 renal) of the same compound?
The GI50 was 13.8 µM.

What about the TGI (RXF 393 renal) of the same compound?
The TGI was 28.1 µM.

And the GI50 (SF-268 CNS)?
The GI50 was 36.3 µM.

What about the TGI (SF-268 CNS) of the same compound?
The TGI was greater than 100 µM.

What about the GI50 (SF-295 CNS) of the same compound?
Its GI50 is 21 µM.

What about the TGI (SF-295 CNS) of the same compound?
The TGI was 42.1 µM.

And the GI50 (SF-539 CNS)?
Its GI50 is 16.1 µM.

What about the TGI (SF-539 CNS) of the same compound?
The TGI was 30.1 µM.

And the GI50 (SK-MEL-2 melanoma)?
Its GI50 is 25.6 µM.

What about the TGI (SK-MEL-2 melanoma) of the same compound?
The TGI was 84.2 µM.

And the GI50 (SK-MEL-28 melanoma)?
The GI50 was 16.7 µM.

What about the TGI (SK-MEL-28 melanoma) of the same compound?
Its TGI is 31.5 µM.

What about the GI50 (SK-MEL-5 melanoma) of the same compound?
The GI50 was 17.8 µM.

And the TGI (SK-MEL-5 melanoma)?
Its TGI is 33.5 µM.

And the GI50 (SK-OV-3 ovarian)?
Its GI50 is 48.7 µM.

And the TGI (SK-OV-3 ovarian)?
The TGI was greater than 100 µM.

And the GI50 (SN12C renal)?
The GI50 was 32.5 µM.

What about the TGI (SN12C renal) of the same compound?
The TGI was greater than 100 µM.

What about the GI50 (SNB-19 CNS) of the same compound?
The GI50 was 21.4 µM.

And the TGI (SNB-19 CNS)?
The TGI was 51.1 µM.

And the GI50 (SNB-75 CNS)?
Its GI50 is 19.9 µM.

What about the TGI (SNB-75 CNS) of the same compound?
The TGI was greater than 100 µM.

And the GI50 (SR leukemia)?
The GI50 was 18.8 µM.

What about the TGI (SR leukemia) of the same compound?
The TGI was 47.9 µM.

What about the GI50 (SW-620 colon) of the same compound?
Its GI50 is 16.2 µM.

What about the TGI (SW-620 colon) of the same compound?
The TGI was 31.7 µM.

And the GI50 (T-47D breast)?
Its GI50 is 12.2 µM.

And the TGI (T-47D breast)?
Its TGI is 59.5 µM.

And the GI50 (TK-10 renal)?
Its GI50 is 79.7 µM.

What about the TGI (TK-10 renal) of the same compound?
Its TGI is greater than 100 µM.

And the GI50 (U251 CNS)?
Its GI50 is 16.5 µM.

What about the TGI (U251 CNS) of the same compound?
Its TGI is 31.9 µM.

What about the GI50 (UACC-257 melanoma) of the same compound?
Its GI50 is 16.9 µM.

And the TGI (UACC-257 melanoma)?
The TGI was 32.7 µM.

What about the GI50 (UACC-62 melanoma) of the same compound?
The GI50 was 18.5 µM.

What about the TGI (UACC-62 melanoma) of the same compound?
The TGI was 36.5 µM.

And the GI50 (UO-31 renal)?
Its GI50 is 13.5 µM.

And the TGI (UO-31 renal)?
Its TGI is 28.8 µM.
